Laboratory results published in patent US20220119354A1, “DIAMINO-SUBSTITUTED PYRIDINES AND PYRIMIDINES AS HERBICIDES” (FMC Corporation, priority 2019, published 2022).

Assays:
Type in all cases: in vivo
[1] = test system: barnyardgrass (Echinochloa crus-galli); test: Test A preemergence, barnyardgrass; conditions: 0 to 100 scale, 0 is no effect, 100 is complete control
Summary of the method: (§1)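 0–100 visual control rating, ~10 d post-treatment, greenhouse. Pre = directed soil spray on seeded loam/sand; post = spray at 1–2 leaf stage. Surfactant-containing solvent formulation.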

[2] = test system: kochia (Kochia scoparia); test: Test A preemergence, kochia; conditions: 0 to 100 scale, 0 is no effect, 100 is complete control
Summary of the method: as §1

[3] = test system: ragweed (common ragweed, Ambrosia elatior); test: Test A preemergence, ragweed; conditions: 0 to 100 scale, 0 is no effect, 100 is complete control
Summary of the method: as §1

[4] = test system: ryegrass, Italian (Lolium multiflorum); test: Test A preemergence, Italian ryegrass; conditions: 0 to 100 scale, 0 is no effect, 100 is complete control
Summary of the method: as §1

[5] = test system: foxtail, giant (Setaria faberii); test: Test A preemergence, giant foxtail; conditions: 0 to 100 scale, 0 is no effect, 100 is complete control
Summary of the method: as §1

[6] = test system: pigweed (Amaranthus retroflexus); test: Test A preemergence, pigweed; conditions: 0 to 100 scale, 0 is no effect, 100 is complete control
Summary of the method: as §1

[7] = test system: barnyardgrass (Echinochloa crus-galli); test: Test A postemergence, barnyardgrass; conditions: 0 to 100 scale, 0 no effect, 100 complete control
Summary of the method: as §1

[8] = test system: kochia (Kochia scoparia); test: Test A postemergence, kochia; conditions: 0 to 100 scale, 0 no effect, 100 complete control
Summary of the method: as §1

[9] = test system: ragweed (common ragweed, Ambrosia elatior); test: Test A postemergence, ragweed; conditions: 0 to 100 scale, 0 no effect, 100 complete control
Summary of the method: as §1

[10] = test system: ryegrass, Italian (Lolium multiflorum); test: Test A postemergence, Italian ryegrass; conditions: 0 to 100 scale, 0 no effect, 100 complete control
Summary of the method: as §1

[11] = test system: foxtail, giant (Setaria faberii); test: Test A postemergence, giant foxtail; conditions: 0 to 100 scale, 0 no effect, 100 complete control
Summary of the method: as §1

[12] = test system: pigweed (Amaranthus retroflexus); test: Test A postemergence, pigweed; conditions: 0 to 100 scale, 0 no effect, 100 complete control
Summary of the method: as §1

[13] = test system: wheat (Triticum aestivum); test: Test A postemergence, wheat; conditions: 0 to 100 scale, 0 no effect, 100 complete control
Summary of the method: as §1

[14] = test system: corn (Zea mays); test: Test A postemergence, corn; conditions: 0 to 100 scale, 0 no effect, 100 complete control
Summary of the method: as §1

[15] = test system: blackgrass (Alopecurus myosuroides); test: Test A postemergence, blackgrass; conditions: 0 to 100 scale, 0 no effect, 100 complete control
Summary of the method: as §1

[16] = test system: galium (catchweed bedstraw, Galium aparine); test: Test A postemergence, galium; conditions: 0 to 100 scale, 0 no effect, 100 complete control
Summary of the method: as §1

[17] = test system: rice (Oryza sativa); test: Test B flooded paddy test, rice; conditions: Flood, 250 g ai/ha, applied to paddy water, 2-leaf stage, visual evaluation after 13 to 15 d
Summary of the method: (§2)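 Each response is a visual 0–100 rating made against untreated controls, where 0 is no effect and 100 is complete control; a dash marks no result. Compound was dosed into 3 cm paddy water over 2-leaf plants, assessed after 13 to 15 d.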

[18] = test system: sedge, umbrella (small-flower umbrella sedge, Cyperus difformis); test: Test B flooded paddy test, umbrella sedge; conditions: Flood, 250 g ai/ha, applied to paddy water, 2-leaf stage, visual evaluation after 13 to 15 d
Summary of the method: as §2

[19] = test system: ducksalad (Heteranthera limosa); test: Test B flooded paddy test, ducksalad; conditions: Flood, 250 g ai/ha, applied to paddy water, 2-leaf stage, visual evaluation after 13 to 15 d
Summary of the method: as §2

[20] = test system: barnyardgrass (Echinochloa crus-galli); test: Test B flooded paddy test, barnyardgrass; conditions: Flood, 250 g ai/ha, applied to paddy water, 2-leaf stage, visual evaluation after 13 to 15 d
Summary of the method: as §2

Row | Compound | Barnyardgrass plant response rating ([1]; 125 g ai/ha) | Barnyardgrass plant response rating ([1]; 500 g ai/ha) | Kochia plant response rating ([2]; 125 g ai/ha) | Kochia plant response rating ([2]; 500 g ai/ha) | Ragweed plant response rating ([3]; 125 g ai/ha) | Ragweed plant response rating ([3]; 500 g ai/ha) | Ryegrass, Italian plant response rating ([4]; 125 g ai/ha) | Ryegrass, Italian plant response rating ([4]; 500 g ai/ha) | Foxtail, Giant plant response rating ([5]; 125 g ai/ha) | Foxtail, Giant plant response rating ([5]; 500 g ai/ha) | Pigweed plant response rating ([6]; 125 g ai/ha) | Pigweed plant response rating ([6]; 500 g ai/ha) | Plant response rating, Barnyardgrass ([7]; 125 g ai/ha) | Plant response rating, Barnyardgrass ([7]; 500 g ai/ha) | Plant response rating, Kochia ([8]; 125 g ai/ha) | Plant response rating, Kochia ([8]; 500 g ai/ha) | Plant response rating, Ragweed ([9]; 125 g ai/ha) | Plant response rating, Ragweed ([9]; 500 g ai/ha) | Plant response rating, Ryegrass, Italian ([10]; 125 g ai/ha) | Plant response rating, Ryegrass, Italian ([10]; 500 g ai/ha) | further results
1 | C[C@H](Nc1ncc(C(F)(F)F)c(N)n1)c1coc2ccc(F)cc12 [Compound 56] | 70 | 70 | 0 | 0 | 20 | 80 | 0 | 0 | 0 | 0 | 0 | 30 | 50 | 30 | 0 | 40 | 0 | 30 | 0 | 0 | Plant response rating, Foxtail, Giant ([11]; 125 g ai/ha): 10; Plant response rating, Foxtail, Giant ([11]; 500 g ai/ha): 20; Plant response rating, Pigweed ([12]; 125 g ai/ha): 20; Plant response rating, Pigweed ([12]; 500 g ai/ha): 60; Plant response rating, Wheat ([13]; 125 g ai/ha): 0; Plant response rating, Wheat ([13]; 500 g ai/ha): 0; Plant response rating, Corn ([14]; 125 g ai/ha): 0; Plant response rating, Corn ([14]; 500 g ai/ha): 10; Plant response rating, Blackgrass ([15]; 125 g ai/ha): 0; Plant response rating, Blackgrass ([15]; 500 g ai/ha): 0; Plant response rating, Galium ([16]; 125 g ai/ha): 0; Plant response rating, Galium ([16]; 500 g ai/ha): 0; Plant response rating, Rice (0 to 100 scale, 0 is no effect, 100 is complete control) [17]: 0; Plant response rating, Sedge, Umbrella (0 to 100 scale, 0 is no effect, 100 is complete control) [18]: 0; Plant response rating, Ducksalad (0 to 100 scale, 0 is no effect, 100 is complete control) [19]: 0; Plant response rating, Barnyardgrass (0 to 100 scale, 0 is no effect, 100 is complete control) [20]: 0
2 | CC[C@@H](Nc1ncc(C(F)(F)F)c(N)n1)c1coc2ccccc12 [Compound 80] | 90 | 100 | 90 | 100 | 100 | 100 | 70 | 100 | 90 | 100 | 90 | 100 | 40 | 100 | 80 | 90 | 90 | 90 | 0 | 90 | Plant response rating, Foxtail, Giant ([11]; 125 g ai/ha): 0; Plant response rating, Foxtail, Giant ([11]; 500 g ai/ha): 0; Plant response rating, Pigweed ([12]; 125 g ai/ha): 100; Plant response rating, Pigweed ([12]; 500 g ai/ha): 100; Plant response rating, Wheat ([13]; 125 g ai/ha): 30; Plant response rating, Wheat ([13]; 500 g ai/ha): 30; Plant response rating, Corn ([14]; 125 g ai/ha): 20; Plant response rating, Corn ([14]; 500 g ai/ha): 50; Plant response rating, Blackgrass ([15]; 125 g ai/ha): 0; Plant response rating, Blackgrass ([15]; 500 g ai/ha): 70; Plant response rating, Galium ([16]; 125 g ai/ha): 70; Plant response rating, Galium ([16]; 500 g ai/ha): 90; Plant response rating, Rice (0 to 100 scale, 0 is no effect, 100 is complete control) [17]: 10; Plant response rating, Sedge, Umbrella (0 to 100 scale, 0 is no effect, 100 is complete control) [18]: 95; Plant response rating, Ducksalad (0 to 100 scale, 0 is no effect, 100 is complete control) [19]: 85; Plant response rating, Barnyardgrass (0 to 100 scale, 0 is no effect, 100 is complete control) [20]: 90
